Assay results as given in PubChem BioAssay (NCI).
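Compound exposure: 48 hours, 5 concentrations, 96-well plates. TGI is the concentration that stops growth completely.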

Assays:
Assay in all cases: inhibition of tumour cell growth, NCI panel, 48 h
CCRF-CEM leukemia = system: CCRF-CEM leukemia
DU-145 prostate = system: DU-145 prostate
M14 melanoma = system: M14 melanoma
MALME-3M melanoma = system: MALME-3M melanoma
MCF7 breast = system: MCF7 breast
MDA-MB-231 breast = system: MDA-MB-231 breast
NCI-H23 lung = system: NCI-H23 lung
PC-3 prostate = system: PC-3 prostate
SF-539 CNS = system: SF-539 CNS
UACC-257 melanoma = system: UACC-257 melanoma

SMILES: COC1=CC(=O)CC(C)C12Oc1c(Cl)c(OC)cc(OC)c1C2=O (stereo not drawn)
- TGI (CCRF-CEM leukemia): 98.3 µM
- TGI (DU-145 prostate): > 100 µM
- TGI (M14 melanoma): > 65.7 µM
- TGI (MALME-3M melanoma): > 100 µM
- TGI (MCF7 breast): > 100 µM
- TGI (MDA-MB-231 breast): 32.5 µM
- TGI (NCI-H23 lung): > 100 µM
- TGI (PC-3 prostate): > 70.3 µM
- TGI (SF-539 CNS): 42.1 µM
- TGI (UACC-257 melanoma): > 100 µM

SMILES: Cc1cccc(N2C(=O)C3c4[nH]c5ccccc5c4C4CCC(C(C)(C)C)CC4C3C2=O)c1 (stereo not drawn)
- TGI (CCRF-CEM leukemia): 23.5 µM
- TGI (DU-145 prostate): 33.4 µM
- TGI (M14 melanoma): 28.3 µM
- TGI (MALME-3M melanoma): 28 µM
- TGI (MCF7 breast): 24.5 µM
- TGI (MDA-MB-231 breast): 21.3 µM
- TGI (NCI-H23 lung): 30.1 µM
- TGI (PC-3 prostate): 24.8 µM
- TGI (UACC-257 melanoma): 44.6 µM

SMILES: CC(=O)Nc1c(S(=O)(=O)c2ccccc2)c(C)c(C)n1Cc1ccccc1
- TGI (CCRF-CEM leukemia): > 100 µM
- TGI (DU-145 prostate): > 100 µM
- TGI (M14 melanoma): > 100 µM
- TGI (MALME-3M melanoma): > 100 µM
- TGI (MDA-MB-231 breast): > 100 µM
- TGI (NCI-H23 lung): > 100 µM
- TGI (PC-3 prostate): > 100 µM
- TGI (UACC-257 melanoma): > 100 µM

SMILES: O=c1oc2ccccc2cc1-c1cn2c(n1)sc1ccccc12
- TGI (CCRF-CEM leukemia): > 100 µM
- TGI (DU-145 prostate): > 100 µM
- TGI (M14 melanoma): > 100 µM
- TGI (MCF7 breast): 77.4 µM
- TGI (MDA-MB-231 breast): > 100 µM
- TGI (NCI-H23 lung): > 100 µM
- TGI (PC-3 prostate): > 100 µM
- TGI (SF-539 CNS): > 100 µM
- TGI (UACC-257 melanoma): > 100 µM

SMILES: c1csc(-c2ccsc2-c2cccs2)c1
- TGI (CCRF-CEM leukemia): > 100 µM
- TGI (DU-145 prostate): > 100 µM
- TGI (M14 melanoma): > 100 µM
- TGI (MCF7 breast): > 100 µM
- TGI (NCI-H23 lung): 49.7 µM
- TGI (SF-539 CNS): > 100 µM
- TGI (UACC-257 melanoma): > 100 µM

SMILES: COc1ccccc1NC(=O)CC(=O)N1N=C(N2c3ccccc3Sc3ccccc32)CC1c1ccccc1 (stereo not drawn)
- TGI (CCRF-CEM leukemia): > 100 µM
- TGI (DU-145 prostate): > 100 µM
- TGI (M14 melanoma): > 100 µM
- TGI (MCF7 breast): > 100 µM
- TGI (MDA-MB-231 breast): > 100 µM
- TGI (NCI-H23 lung): > 100 µM
- TGI (PC-3 prostate): > 100 µM
- TGI (SF-539 CNS): > 100 µM
- TGI (UACC-257 melanoma): > 100 µM

SMILES: O=C(O)c1cnc(-n2[nH]c3c(c2=O)CCCC3)[nH]c1=O
- TGI (CCRF-CEM leukemia): > 100 µM
- TGI (DU-145 prostate): > 100 µM
- TGI (M14 melanoma): > 100 µM
- TGI (MALME-3M melanoma): > 100 µM
- TGI (MDA-MB-231 breast): > 100 µM
- TGI (NCI-H23 lung): > 100 µM
- TGI (PC-3 prostate): > 100 µM
- TGI (SF-539 CNS): > 100 µM
- TGI (UACC-257 melanoma): > 100 µM

SMILES: COC1=CC2(CC(OC)=C1OC)OC21COc2ccccc2C1=O (stereo not drawn)
- TGI (CCRF-CEM leukemia): > 100 µM
- TGI (M14 melanoma): > 100 µM
- TGI (MALME-3M melanoma): > 100 µM
- TGI (MCF7 breast): > 100 µM
- TGI (MDA-MB-231 breast): > 100 µM
- TGI (NCI-H23 lung): > 100 µM
- TGI (PC-3 prostate): > 100 µM
- TGI (SF-539 CNS): > 100 µM
- TGI (UACC-257 melanoma): > 100 µM

SMILES: OCCN(/N=C\c1ccc2ccccc2c1)C1=NCCN1
- TGI (CCRF-CEM leukemia): 71.4 µM
- TGI (DU-145 prostate): > 100 µM
- TGI (M14 melanoma): 35 µM
- TGI (MALME-3M melanoma): 29.6 µM
- TGI (MCF7 breast): > 100 µM
- TGI (MDA-MB-231 breast): 33.4 µM
- TGI (NCI-H23 lung): > 100 µM
- TGI (PC-3 prostate): > 100 µM
- TGI (SF-539 CNS): 43.6 µM

SMILES: Cn1c(CO)ccc1-c1ccc(-c2ccc[se]2)[se]1
- TGI (CCRF-CEM leukemia): > 60.6 µM
- TGI (DU-145 prostate): 58 µM
- TGI (M14 melanoma): > 100 µM
- TGI (MALME-3M melanoma): > 100 µM
- TGI (MCF7 breast): > 52.4 µM
- TGI (MDA-MB-231 breast): 60 µM
- TGI (NCI-H23 lung): 50.7 µM
- TGI (PC-3 prostate): > 100 µM
- TGI (SF-539 CNS): 31.7 µM

SMILES: CCCCCCCCCCCCCCCCOP(=O)(O)OCC(N)C(=O)O (stereo not drawn)
- TGI (CCRF-CEM leukemia): 65 µM
- TGI (DU-145 prostate): > 100 µM
- TGI (M14 melanoma): 46.5 µM
- TGI (MALME-3M melanoma): > 100 µM
- TGI (MDA-MB-231 breast): 47.4 µM
- TGI (NCI-H23 lung): 69.4 µM
- TGI (PC-3 prostate): 31.1 µM
- TGI (SF-539 CNS): 39.8 µM
- TGI (UACC-257 melanoma): > 100 µM

SMILES: O=C(CSc1nc(-c2ccccc2)c(-c2ccccc2)[nH]1)N/N=C/c1ccc(O)cc1
- TGI (CCRF-CEM leukemia): > 100 µM
- TGI (M14 melanoma): 40.6 µM
- TGI (MALME-3M melanoma): 52.5 µM
- TGI (NCI-H23 lung): 84.3 µM
- TGI (SF-539 CNS): 40.5 µM
- TGI (UACC-257 melanoma): > 100 µM
